The target in assay [1] is T1, TIFA (Homo sapiens, UniProt Q96CG3).
T1 construct: expressed in transfected cells; endogenous TIFA knocked down with a 3' UTR shRNA
T1 sequence (Q96CG3 1-184): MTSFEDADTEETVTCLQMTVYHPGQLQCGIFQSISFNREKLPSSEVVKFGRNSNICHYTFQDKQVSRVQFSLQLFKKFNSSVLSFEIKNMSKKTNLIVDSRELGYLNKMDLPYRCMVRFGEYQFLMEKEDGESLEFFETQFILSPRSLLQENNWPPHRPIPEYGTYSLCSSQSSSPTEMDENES
Kind of assay: Confocal microscopy of FLAG-TIFA with TRAF6 or Lamp2. In kind it is cell-based. As to the method:
For visualization of FLAG-TIFA and TRAF6, cells were stained overnight at 4° C. with Alexa Fluor-488 conjugated rabbit anti-FLAG (Cell Signaling) and mouse anti-TRAF6 (sc-8409; Santa Cruz), followed by 1 hour with Alexa Fluor-594 conjugated anti mouse (Life Technologies). For visualization of FLAG-TIFA and Lamp2, cells were stained overnight at 4° C. with mouse anti-FLAG (M2; Sigma) and rabbit anti-Lamp2 (ab37024; Abcam), followed by 1 hour with Alexa Fluor-488 conjugated anti-mouse (Life Technologies) and Alexa Fluor-594 conjugated anti-rabbit (Life Technologies). Slides were visualized using an LSM510 (Carl Zeiss) confocal microscope. For analysis, images were processed using ImageJ software

Assay [2] has as its system HIV gene expression from latently-infected cells. The experiment in a line: Latent HIV-1 reporter Jurkat T cell line (RG5), DsRed expression. In kind it is cell-based, human. Conditions: FIG. 11B. The text has this:
The full-length HIV-1 molecular clone pLAl containing the following modifications was used as the reporter backbone: Avrll deletion of the 3′ end of Gag and the entire coding sequence of Pol, and a the Ndel/Stul deletion of the 3′ end of Env. The Dsred allele was cloned into the Nef reading frame using BamH1, and Xhol. Lentiviral particles were produced by co-transfection into 293T cells with pMDG.2 and psPAX2. Jurkat cells were transduced with the minimum dose required to see DsRed positive cells following treatment with 10 ng/ml TNFα. 48 hours post transfection, cells were treated HBP, and DsRed positive cells sorted by FACS. Cells were cultured for 14 days followed by DsRed negative cell sorting by FACS. 5 days later, cells were induced with HBP, and DsRed positive cells collected into 96 well plates (0.5 cells/well). Clones were individually tested for low basal DsRed expression, and high DsRed expression following treatment with both HBP and TNFα and termed RG5.
Live cells were re-suspended to 1×10^6 cells/ml in 2% FBS in PBS and analyzed using a FACSCalibur with CellQuest software (Becton Dickinson). Analysis was preformed using FlowJo software (TreeStar). Cell sorting was done using an Aria I cell sorter (Becton Dickinson).

Assay [3] addresses T1, TIFA. The experiment in a line: Phosphopeptide analysis of FLAG-TIFA by LC-MS/MS. In kind it is cell-based. Conditions: HBP or mock-treated cells stably expressing FLAG-TIFA; FIG. 19a. As to the method: (§1) FLAG-TIFA was immunoprecipitated from Jurkat cells using FLAG M2 agarose beads (Sigma) as described previously (Chen and Gingras, 2007). Briefly, cells were lysed in 50 mM Hepes-KOH pH 8.0, 100 mM KCl, 2 mM EDTA, 0.1% NP40, 10% glycerol. Soluble cell lysates were pre-cleared for 2 hr with mouse IgG agarose (Sigma) and immunoprecipitated overnight at 4° C. Proteins eluted using 0.5 M NH4OH pH 11 (for mass-spectrometry), or 3× FLAG-peptide (Sigma) (immunoblot analysis). TRAF6 was immunoprecipitated from Jurkat cell lysates using rabbit anti-TRAF6 (sc-72201; Santa cruz) conjugated to protein A/G PLUS-agarose (Santa cruz) and eluted in sample buffer. Whole cell lysates or immunoprecipitation eluates were immunoblotted with the following antibodies: M2 anti-FLAG (Sigma), rabbit anti-FLAG (Sigma), mouse anti-TRAF6 (sc-8409; Santa Cruz), rabbit anti-TRAF2 (sc-876), mouse anti-ubiquitin (sc-8017; Santa cruz), mouse anti-beta actin (Sigma). For phosphopeptide analysis, FLAG-TIFA was excised from the gel, subject to in-gel trypic digestion, followed by treatment with cyanogen bromide (Sigma) in 70% TFA and analyzed by LC/MS/MS. Data were analyzed by Scaffold PTM (Proteome).

The subject of assay [4] is NF-κB dependent genes in Jurkat T cells. The experiment in a line: Microarray, qRT-PCR and NF-κB subunit ELISA in Jurkat T cells. In kind it is cell-based, human. Conditions: compared with flagellin or TNFα, FIG. 2b,c. As to the method: RNA was isolated using an RNeasy kit (Qiagen) per manufacturers' protocol. cDNA was synthesized using the iScript cDNA synthesis kit (Bio-Rad) and treated with TURBO DNase (Life Technologies). cDNA was amplified using SsoAdvanced SYBR Green (Bio-Rad) using a C1000 thermal cycler (Bio-Rad). Target genes were amplified using the following primers: […]
(§2) Relative expression was calculated using the 2^−ΔΔCT method following normalization of target gene abundance to GAPDH. Quantitative measurements of cytokines were performed using ELISA kits form R&D Systems (KC, IL-23, IFN-β) or BD Biosciences (IL-1β, IL-8, IL-6, IL-12p70, TNF-α). Nuclear extracts were prepared from Jurkat T cells and NF-κB subunit binding was determined using the TransAM® Transcription Factor ELISA (Active Motif). Microarray
Two clonal populations of Jurkat cells were stimulated for 2 hr with purified HBP-containing supernatants, or supernatants from M. catarrhalis. RNA was extracted using RNeasy (Qiagen), labeled using Illumina TotalPrep RNA Amplification kit (Ambion) and analyzed on a human HT-12 v4.0 Beadchip (Illumina). Data normalization and analysis were provided as a service by the Bioinformatics Department of the University Health Network (UHN) Micro array Centre, Toronto, ON. Data was analyzed using Genespring v11.0.1. […]
(Real-time PCR tracks product formation cycle by cycle.)

A further assay deals with T2, TIFA-TRAF6 interaction (Homo sapiens, UniProt Q96CG3).
T2 construct: expressed in transfected cells; endogenous TIFA knocked down with a 3' UTR shRNA; TRAF6 endogenous
T2 sequence (Q96CG3 1-184): T1 sequence (Q96CG3 1-184)
Kind of assay: FLAG-TIFA immunoprecipitation and immunoblot for TRAF6. In kind it is cell-based. As to the method:
as §1

The subject of assay [5] is primary human macrophages, neutrophils, and immortalized epithelial cells. The experiment in a line: Cytokine production in primary human cells (ELISA). Type of assay: cell-based. As to the method: as §2
Whole blood was taken by venipuncture from human volunteers. Peripheral blood mononuclear cells (PBMCs) were isolated using Ficoll-Paque (GE). PBMCs (2×10^6 cells/ml) were incubated for one hour at 37° C. to allow monocytes to adhere. Following removal of non-adherent cells, monocytes were re-suspended and incubated for 7 days in RPMI 1640, 10% FBS, 1% glutamax, 1% penicillin streptomycin, containing 100 ng/ml recombinant human Granulocyte macrophage-colony stimulating factor (GM-CSF) (BioLegend). For infections, cells were detached using accutase (Sigma) and seeded at 2×10^5 cells/well in 48 well plates without antibiotics. Human neutrophils were isolated from citrated whole blood taken from healthy volunteers by venipuncture using Ficoll-Paque (GE) as described previously (McCaw et al., 2003).
On the technique in general: ELISA stands for enzyme-linked immunosorbent assay.

One molecule from patent publication US10238738B2, “Methods of modulating immune system responses” (priority 2014, dated 2019) can be followed below.

Consider `O=P(O)(O)OC[C@@H](O)[C@H]1OC(OP(=O)(O)O)[C@@H](O)[C@@H](O)[C@@H]1O` (stereo partly drawn) [HBP, D-glycerol-D-manno-heptose-1,7-bisphosphate], for which the “TIFA co-localization with TRAF6” value on TIFA [1] (293T cells, 3 hr, FIG. 16b) was “co-localized with TRAF6 in distinct foci”. Besides, the “Formation of TIFA aggregates co-localized with Lamp2” value at TIFA [1] (293 cells, 4 hr, FIG. 21) is on record as “induced the formation of large TIFA aggregates”. Also, the “HIV gene expression from latently-infected cells” value in assay [2] is listed as “potently induce HIV gene expression”. On TIFA [3], the “TIFA Thr9 phosphorylation” value was “phosphorylated only after treatment with HBP”. The “Kinetics of NF-κB activation and pro-inflammatory transcriptional response” value in assay [4] is “slower, and persisted longer”. The “Ubiquitin chains in the TIFA-TRAF6 complex” value on TIFA-TRAF6 interaction (Jurkat cells, TIFA immunoprecipitation, FIG. 17a) is on record as “Ubiquitin chains could be detected”. The TIFA-TRAF6 interaction entry on TIFA-TRAF6 interaction (cells expressing FLAG-TIFA, endogenous TIFA knocked down, FIG. 16a) was “completely dependent on HBP”. In addition, the “Time at which TIFA-TRAF6 interaction was apparent” value on TIFA-TRAF6 interaction (post treatment, FIG. 16a) was determined as 30 min. In addition, in assay [5] (24 hr, FIG. 8a-c), the “IL-8, IL-6 and TNFα production” value was “induced IL-8, IL-6, and TNFα production”. Moreover, the “Th17 polarizing cytokines IL-6 and IL-23” value in assay [5] (primary human macrophages) is recorded as “induced significant amounts”.
